Results as given in PMC4686831, “Identification of an allosteric binding site for RORγt inhibition” (Nature Communications, 2015).
Where two headings read alike, the source gives them in different places.

Experiments:
[1] = system: IL17a mRNA expression in EL4 cells; test: Quantitative IL17a RT-PCR in EL4 cells; assay type: cell-based, mouse; settings: 10 μM, 24 h, vs DMSO, normalized to GAPDH
Experimental: EL4 cells (Sigma-Aldrich) were grown in DMEM (Gibco). At 24 h after the cells were seeded onto a 12-well plate, the cells were treated with ligands 1–3 (from 10 mM stock in DMSO) or DMSO. After 24 h, the cells were collected and RNA was isolated using a RNeasy Plus Micro Kit (Qiagen) and reverse transcribed using the iScrip cDNA biosynthesis kit (Bio-Rad). Quantitative RT–PCR was performed to analyse mRNA levels of mouse IL17a levels using SYBR green technology (Bio-Rad) on a CFX Real-Time System (Bio-Rad). Primer sequences used for IL17a:[45] Fw: 5′-[…]-3′, Rev: 5′-[…]-3′ and Gapdh: Fw: 5′-[…]-3′, Rev: 5′-[…]-3′. The level of IL17a mRNA expression was normalized to that of Gapdh expression. All data are expressed as the mean±s.e.m. (n=6). Statistical analysis was performed using an one-way analysis of variance comparing against the DMSO control following Dunnett post hoc test.

[2] = system: IL-17 production in human PBMCs; test: PBMC Th17 polarization and IL-17 production assay; assay type: cell-based; settings: 96 h, 4 days, mean±s.d., read-out: hPBMC IL17A IC50
Experimental: Test compounds were prepared as 10 mM stocks in DMSO and serially diluted 1:3 to provide an eight-concentration titration. […] Stimulatory cytokines were added to final concentrations of 25 ng ml^−1 IL-1B, 10 ng ml^−1 IL-23, 0.5 ng ml^−1 IL-2 and 10 ng ml^−1 IL-6 (all cytokines from R&D Systems). In addition, T-Activator CD3/28 Dynabeads (Invitrogen) were added to a concentration of 100,000 beads per ml. The stimulated cells were immediately dispensed into the assay plate containing serially diluted compound at a volume of 200 μl cells per well. Cell plates were then incubated at 37 °C and 5% CO2 for 4 days. Culture media (100 μl) was collected from each well and IL-17 expression was measured by enzyme-linked immunosorbent assay (R&D Systems) according to the manufacturer's instructions. Cell viability was assessed by the addition of 100 μl of CellTiter-Glo (Promega) to each well of the cell assay plate followed by luminescence detection on an Envision plate reader (PerkinElmer).

[3] = system: CD36 and FABP4 gene expression in MSCs; design: dose or concentration left out as unconfirmed; settings: MRL-299, data not shown
RXRg = RXRg (Homo sapiens, UniProt P48443); test: Receptor reporter assay selectivity panel: RXRg
Experimental: (§1) * Receptor Reporter Assay Selectivity Panel- Assays were performed by Indigo Bioscience (State
(§2) College, PA) according to their established protocols. The AR, ER, GR, MR, and PR assays utilize full
(§3) length receptor constructs whereas all others are chimeric with the GAL4 DNA binding domain.

PPARa = PPARa (Homo sapiens, UniProt Q07869); test: Receptor reporter assay selectivity panel: PPARa
Experimental: as §1, §2, §3

CAR1 = CAR1 (Homo sapiens, UniProt Q14994); test: Receptor reporter assay selectivity panel: CAR1
Experimental: as §1, §2, §3

CAR3 = CAR3 (Homo sapiens, UniProt Q14994); test: Receptor reporter assay selectivity panel: CAR3
Experimental: as §1, §2, §3

RARg = target: T1, RARg (Homo sapiens, UniProt P13631); test: Receptor reporter assay selectivity panel: RARg
T1 sequence (P13631 185-419 limits assumed): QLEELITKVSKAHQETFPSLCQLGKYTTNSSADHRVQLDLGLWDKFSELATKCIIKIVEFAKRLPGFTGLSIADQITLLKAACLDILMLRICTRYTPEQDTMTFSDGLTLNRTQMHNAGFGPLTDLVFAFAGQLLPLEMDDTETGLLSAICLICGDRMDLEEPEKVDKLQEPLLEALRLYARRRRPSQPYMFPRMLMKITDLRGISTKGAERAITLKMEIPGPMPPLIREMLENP
Experimental: as §1, §2, §3

FXR = FXR (Homo sapiens, UniProt Q96RI1); test: Receptor reporter assay selectivity panel: FXR
FXR, sequence (Q96RI1 262-486 limits assumed): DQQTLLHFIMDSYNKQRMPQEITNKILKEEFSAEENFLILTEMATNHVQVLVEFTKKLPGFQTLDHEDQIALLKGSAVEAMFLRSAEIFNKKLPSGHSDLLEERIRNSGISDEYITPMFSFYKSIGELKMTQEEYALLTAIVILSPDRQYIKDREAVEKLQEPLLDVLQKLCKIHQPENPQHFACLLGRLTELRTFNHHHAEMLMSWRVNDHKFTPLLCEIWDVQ
Experimental: as §1, §2, §3

PXR = target: T2, PXR (Homo sapiens, UniProt O75469); test: Receptor reporter assay selectivity panel: PXR
T2 sequence (O75469 146-434 limits assumed): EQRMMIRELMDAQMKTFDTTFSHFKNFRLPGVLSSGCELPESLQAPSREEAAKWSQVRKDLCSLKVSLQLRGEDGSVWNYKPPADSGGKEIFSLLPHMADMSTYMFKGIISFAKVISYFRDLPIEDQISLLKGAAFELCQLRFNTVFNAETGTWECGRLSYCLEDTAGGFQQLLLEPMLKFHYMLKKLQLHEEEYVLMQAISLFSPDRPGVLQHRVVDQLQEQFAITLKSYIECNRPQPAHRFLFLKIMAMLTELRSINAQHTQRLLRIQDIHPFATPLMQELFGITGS
Experimental: as §1, §2, §3

LXRb = LXRb (Homo sapiens, UniProt P55055); test: Receptor reporter assay selectivity panel: LXRb
LXRb, sequence (P55055 222-460 limits assumed): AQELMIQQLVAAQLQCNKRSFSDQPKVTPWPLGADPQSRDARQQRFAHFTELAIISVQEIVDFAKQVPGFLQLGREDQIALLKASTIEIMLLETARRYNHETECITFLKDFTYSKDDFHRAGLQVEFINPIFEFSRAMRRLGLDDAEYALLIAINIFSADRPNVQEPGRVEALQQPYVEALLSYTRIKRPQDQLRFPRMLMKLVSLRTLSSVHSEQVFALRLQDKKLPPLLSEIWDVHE
Experimental: as §1, §2, §3

TRb = TRb (Homo sapiens, UniProt P10828); test: Receptor reporter assay selectivity panel: TRb
TRb, sequence (P10828 217-461 limits assumed): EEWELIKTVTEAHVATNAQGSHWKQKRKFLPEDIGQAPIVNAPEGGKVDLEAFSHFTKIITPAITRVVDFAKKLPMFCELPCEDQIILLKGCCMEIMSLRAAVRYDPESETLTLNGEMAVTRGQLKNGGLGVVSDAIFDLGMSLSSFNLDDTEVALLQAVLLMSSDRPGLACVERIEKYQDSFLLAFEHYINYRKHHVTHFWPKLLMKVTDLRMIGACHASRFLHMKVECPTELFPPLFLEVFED
Experimental: as §1, §2, §3

TRa = TRa (Homo sapiens, UniProt P10827); test: Receptor reporter assay selectivity panel: TRa
Experimental: as §1, §2, §3

AR = AR (Homo sapiens, UniProt P10275); test: Receptor reporter assay selectivity panel (Indigo Bioscience): AR
Experimental: as §1, §2, §3

[4] = system: Human mesenchymal stem cells (MSCs); test: Adipogenesis of human mesenchymal stem cells (PPARγ dependent); settings: read-out: IC50, inhibition of adipogenesis
RXRb = RXRb (Homo sapiens, UniProt P28702); test: Receptor reporter assay selectivity panel: RXRb
RXRb, sequence (P28702 296-533 limits assumed): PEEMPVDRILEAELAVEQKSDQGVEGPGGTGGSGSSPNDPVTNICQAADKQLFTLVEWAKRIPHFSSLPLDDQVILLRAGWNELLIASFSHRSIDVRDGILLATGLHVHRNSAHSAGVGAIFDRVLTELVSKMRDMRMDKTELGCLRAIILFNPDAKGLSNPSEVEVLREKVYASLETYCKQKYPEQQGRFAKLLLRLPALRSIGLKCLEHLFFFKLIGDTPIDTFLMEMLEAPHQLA
Experimental: as §1, §2, §3

RARb = RARb (Homo sapiens, UniProt P10826); test: Receptor reporter assay selectivity panel: RARb
RARb, sequence (P10826 183-417 limits assumed): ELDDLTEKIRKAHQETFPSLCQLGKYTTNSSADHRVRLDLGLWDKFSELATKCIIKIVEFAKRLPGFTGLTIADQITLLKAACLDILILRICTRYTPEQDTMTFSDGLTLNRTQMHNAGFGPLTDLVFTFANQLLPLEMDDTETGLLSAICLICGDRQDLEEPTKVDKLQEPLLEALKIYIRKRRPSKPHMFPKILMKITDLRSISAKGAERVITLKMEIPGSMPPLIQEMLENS
Experimental: as §1, §2, §3

VDR = VDR (Homo sapiens, UniProt P11473); test: Receptor reporter assay selectivity panel: VDR
Experimental: as §1, §2, §3

PR = PR (Homo sapiens, UniProt P06401); test: Receptor reporter assay selectivity panel: PR
Experimental: as §1, §2, §3

MR = MR (Homo sapiens, UniProt P08235); test: Receptor reporter assay selectivity panel: MR
MR, sequence (P08235 whole entry): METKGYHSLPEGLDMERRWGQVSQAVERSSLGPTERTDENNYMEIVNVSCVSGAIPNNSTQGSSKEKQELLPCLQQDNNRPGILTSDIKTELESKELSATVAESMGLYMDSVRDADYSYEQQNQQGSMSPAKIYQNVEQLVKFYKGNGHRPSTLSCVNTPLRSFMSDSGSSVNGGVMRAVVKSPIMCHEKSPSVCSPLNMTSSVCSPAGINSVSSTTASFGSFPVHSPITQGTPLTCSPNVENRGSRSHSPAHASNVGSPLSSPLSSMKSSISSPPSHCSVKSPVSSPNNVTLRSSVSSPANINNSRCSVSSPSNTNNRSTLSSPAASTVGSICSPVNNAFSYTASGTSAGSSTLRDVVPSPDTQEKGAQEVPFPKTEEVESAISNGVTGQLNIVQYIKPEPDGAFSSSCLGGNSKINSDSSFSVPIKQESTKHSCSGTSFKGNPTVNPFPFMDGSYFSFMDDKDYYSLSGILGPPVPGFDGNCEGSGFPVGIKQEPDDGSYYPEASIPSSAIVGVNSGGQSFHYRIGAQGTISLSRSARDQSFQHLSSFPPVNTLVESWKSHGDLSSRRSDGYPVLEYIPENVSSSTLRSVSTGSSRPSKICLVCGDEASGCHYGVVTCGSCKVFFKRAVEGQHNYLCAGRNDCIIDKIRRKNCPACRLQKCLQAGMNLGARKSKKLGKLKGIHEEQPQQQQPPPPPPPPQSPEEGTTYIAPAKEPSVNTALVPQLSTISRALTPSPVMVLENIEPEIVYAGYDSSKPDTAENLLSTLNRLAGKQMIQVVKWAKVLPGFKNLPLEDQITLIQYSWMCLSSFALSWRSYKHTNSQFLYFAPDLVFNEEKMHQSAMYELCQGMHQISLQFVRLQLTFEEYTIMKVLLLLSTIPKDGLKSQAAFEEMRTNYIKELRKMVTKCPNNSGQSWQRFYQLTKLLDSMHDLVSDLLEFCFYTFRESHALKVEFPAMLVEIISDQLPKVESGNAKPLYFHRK
Experimental: as §1, §2, §3

GR = GR (Homo sapiens, UniProt P04150); test: Receptor reporter assay selectivity panel: GR
GR, sequence (P04150 whole entry): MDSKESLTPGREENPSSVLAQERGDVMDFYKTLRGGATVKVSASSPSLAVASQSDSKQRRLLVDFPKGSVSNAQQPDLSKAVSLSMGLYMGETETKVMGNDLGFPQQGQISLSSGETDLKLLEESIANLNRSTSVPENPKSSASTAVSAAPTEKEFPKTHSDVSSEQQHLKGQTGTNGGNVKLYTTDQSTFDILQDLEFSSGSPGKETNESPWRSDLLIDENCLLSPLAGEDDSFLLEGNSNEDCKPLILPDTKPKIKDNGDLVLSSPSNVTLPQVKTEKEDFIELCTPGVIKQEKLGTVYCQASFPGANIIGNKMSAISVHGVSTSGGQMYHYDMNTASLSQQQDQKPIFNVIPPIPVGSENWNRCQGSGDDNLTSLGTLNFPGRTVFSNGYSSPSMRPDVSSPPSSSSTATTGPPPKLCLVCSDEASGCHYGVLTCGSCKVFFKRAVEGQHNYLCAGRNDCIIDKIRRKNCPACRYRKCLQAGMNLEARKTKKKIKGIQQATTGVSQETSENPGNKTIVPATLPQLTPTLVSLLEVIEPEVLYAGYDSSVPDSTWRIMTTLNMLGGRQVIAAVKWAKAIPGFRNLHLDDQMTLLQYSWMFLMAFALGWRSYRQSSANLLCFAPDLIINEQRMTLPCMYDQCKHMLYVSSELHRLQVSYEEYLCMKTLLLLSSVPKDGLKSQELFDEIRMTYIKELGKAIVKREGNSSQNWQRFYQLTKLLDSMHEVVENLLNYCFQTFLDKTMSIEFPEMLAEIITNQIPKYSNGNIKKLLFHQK
Experimental: as §1, §2, §3

PPARd = PPARd (Homo sapiens, UniProt Q03181); test: Receptor reporter assay selectivity panel: PPARd
Experimental: as §1, §2, §3

ERb = ERb (Homo sapiens, UniProt Q92731); test: Receptor reporter assay selectivity panel: ERb
ERb, sequence (Q92731 whole entry): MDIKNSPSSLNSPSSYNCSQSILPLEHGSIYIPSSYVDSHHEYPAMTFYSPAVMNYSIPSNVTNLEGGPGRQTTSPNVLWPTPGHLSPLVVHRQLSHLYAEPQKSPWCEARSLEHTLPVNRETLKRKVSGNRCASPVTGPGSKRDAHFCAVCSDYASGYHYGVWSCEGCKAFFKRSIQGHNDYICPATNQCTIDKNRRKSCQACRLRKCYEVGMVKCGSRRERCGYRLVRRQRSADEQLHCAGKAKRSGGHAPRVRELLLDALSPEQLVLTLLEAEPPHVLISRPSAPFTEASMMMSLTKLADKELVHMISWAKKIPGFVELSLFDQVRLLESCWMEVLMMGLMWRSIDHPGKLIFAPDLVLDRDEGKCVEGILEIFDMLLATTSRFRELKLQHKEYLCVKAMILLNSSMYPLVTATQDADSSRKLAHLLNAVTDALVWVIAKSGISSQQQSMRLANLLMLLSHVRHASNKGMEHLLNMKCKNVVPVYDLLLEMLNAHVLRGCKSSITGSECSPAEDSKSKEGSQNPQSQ
Experimental: as §1, §2, §3

RXRa = RXRa (Homo sapiens, UniProt P19793); test: Receptor reporter assay selectivity panel: RXRa
Experimental: as §1, §2, §3

AhR = AhR (Homo sapiens, UniProt P35869); test: Receptor reporter assay selectivity panel: AhR
Experimental: as §1, §2, §3

PPARg = PPARg (Homo sapiens, UniProt P37231); test: Receptor reporter assay selectivity panel: PPARg
PPARg, sequence (P37231 232-505 limits assumed): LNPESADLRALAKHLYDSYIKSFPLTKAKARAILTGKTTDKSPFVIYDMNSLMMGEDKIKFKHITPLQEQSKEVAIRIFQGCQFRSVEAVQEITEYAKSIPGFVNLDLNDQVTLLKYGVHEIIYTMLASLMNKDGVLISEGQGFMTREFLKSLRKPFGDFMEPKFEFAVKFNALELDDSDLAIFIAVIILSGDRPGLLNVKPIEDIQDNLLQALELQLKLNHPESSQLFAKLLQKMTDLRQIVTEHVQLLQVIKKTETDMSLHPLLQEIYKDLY
Experimental: as §1, §2, §3

LXRa = LXRa (Homo sapiens, UniProt Q13133); test: Receptor reporter assay selectivity panel: LXRa
LXRa, sequence (Q13133 209-447 limits assumed): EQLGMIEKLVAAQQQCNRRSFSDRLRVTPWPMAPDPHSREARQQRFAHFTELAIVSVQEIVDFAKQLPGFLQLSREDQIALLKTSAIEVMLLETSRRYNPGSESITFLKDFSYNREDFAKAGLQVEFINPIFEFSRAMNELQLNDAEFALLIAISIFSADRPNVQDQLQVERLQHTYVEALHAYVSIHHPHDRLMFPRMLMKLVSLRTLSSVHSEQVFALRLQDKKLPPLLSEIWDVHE
Experimental: as §1, §2, §3

[5] = system: adiponectin gene expression; test: Adiponectin gene expression in MSCs; settings: read-out: IC50, inhibition of adiponectin gene expression
RARa = RARa (Homo sapiens, UniProt P10276); test: Receptor reporter assay selectivity panel: RARa
Experimental: as §1, §2, §3

ERa = ERa (Homo sapiens, UniProt P03372); test: Receptor reporter assay selectivity panel: ERa
ERa, sequence (P03372 whole entry): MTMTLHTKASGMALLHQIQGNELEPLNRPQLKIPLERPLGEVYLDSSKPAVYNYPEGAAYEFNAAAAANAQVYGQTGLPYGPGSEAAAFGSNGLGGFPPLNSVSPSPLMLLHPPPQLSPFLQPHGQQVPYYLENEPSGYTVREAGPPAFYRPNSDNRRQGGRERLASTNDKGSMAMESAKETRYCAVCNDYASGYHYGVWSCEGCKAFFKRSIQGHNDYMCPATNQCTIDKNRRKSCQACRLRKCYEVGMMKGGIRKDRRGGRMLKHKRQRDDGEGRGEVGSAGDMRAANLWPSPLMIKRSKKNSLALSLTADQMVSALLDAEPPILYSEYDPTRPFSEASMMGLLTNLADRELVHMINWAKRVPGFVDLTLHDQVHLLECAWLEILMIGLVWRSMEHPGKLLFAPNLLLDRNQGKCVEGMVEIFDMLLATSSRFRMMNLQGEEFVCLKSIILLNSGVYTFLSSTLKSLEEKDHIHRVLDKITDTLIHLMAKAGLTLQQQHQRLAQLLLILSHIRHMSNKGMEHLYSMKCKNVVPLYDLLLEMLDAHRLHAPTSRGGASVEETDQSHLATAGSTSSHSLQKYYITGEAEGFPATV
Experimental: as §1, §2, §3

CAR2 = CAR2 (Homo sapiens, UniProt Q14994); test: Receptor reporter assay selectivity panel: CAR2
Experimental: as §1, §2, §3

human RORγt LBD = target: T3, human RORγt LBD (Homo sapiens, UniProt P51449); test: HTRF / TR-FRET cofactor peptide recruitment assay; assay type: biochemical; settings: Fig. 2a
T3 construct: The human RORγt LBD used for the HTRF assay; made in house; host or cells: Escherichia coli BL21(DE3)
T3 sequence (P51449 269-508 limits assumed): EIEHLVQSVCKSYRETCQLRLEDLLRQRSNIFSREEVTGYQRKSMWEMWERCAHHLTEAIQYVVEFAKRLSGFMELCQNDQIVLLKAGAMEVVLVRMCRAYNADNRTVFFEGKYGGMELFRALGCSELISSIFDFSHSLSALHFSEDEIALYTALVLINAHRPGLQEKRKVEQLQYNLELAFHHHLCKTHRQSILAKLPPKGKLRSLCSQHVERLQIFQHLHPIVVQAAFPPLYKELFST
Experimental: The human RORγt LBD used for the HTRF assay was expressed as a His6-tag fusion protein from the pET15b expression vector in Escherichia coli BL21(DE3) cells. Cells transformed with this vector were grown in 2 × YT medium supplemented with ampicillin until an OD600=0.7 was reached. Protein expression was then induced with 0.1 mM isopropyl-b-d-thiogalactoside (IPTG). After incubation for 16 h at 16 °C, cell cultures were collected by centrifugation. The cells were lysed via sonication and the protein was purified via Ni^2+-affinity column chromatography.
The homogeneous TR-FRET assays were performed in triplicate with 20 nM His6-RORγt and 100 nM biotin labelled cofactor peptide. […] Assay buffer contained 100 mM HEPES (pH 7.5), 100 mM NaCl, 5 mM dithiothreitol (DTT) and 0.1% bovine serum albumin. The plates (white 384-well plates Greiner Bio-One) were incubated for 2 h at 4 °C before the FRET ratio was measured in a Tecan Infinite F500 plate reader. The data were analysed using Origin software.

Compound: O=C(O)c1ccc(-c2nn(C(=O)c3ccccc3C(F)(F)F)c3ccccc23)cc1 [MRL-058]
- IL17a mRNA levels [1]: significantly reduced

Compound: O=C(O)c1ccc(-c2nn(C(=O)c3c(Cl)cccc3C(F)(F)F)c3ccccc23)cc1 [MRL-871]
- IC50 [2]: 0.0396 ± 0.018 µM
- IL17a mRNA levels [1]: significantly reduced

Compound: O=C(O)c1ccc(-c2nn(C(=O)c3c(Cl)cccc3C(F)(F)F)c3cccc(F)c23)c(F)c1 [MRL-299]
- induction of CD36 gene expression [3]: no induction
- induction of FABP4 gene expression [3]: no induction
- EC50 (RXRg): > 30 µM
- EC50 (PPARa): > 30 µM
- IC50 (PPARa): 19.1 µM
- IC50 (CAR1): 16.7 µM
- IC50 [2]: 0.0094 ± 0.0052 µM
- EC50 (CAR3): > 30 µM
- EC50 (RARg): 0.364 µM
- IC50 (RARg): 3.11 µM
- agonist maximum, % of ATRA max (RARg; RARg, relative to ATRA control): 20%
- EC50 (FXR): > 30 µM
- IC50 (FXR): 13.6 µM
- EC50 (PXR): 4.62 µM
- IC50 (PXR): > 30 µM
- agonist maximum, % of rifampicin max (PXR; PXR, relative to rifampicin control): 63%
- EC50 (LXRb): > 30 µM
- IC50 (LXRb): 21.5 µM
- EC50 (TRb): > 30 µM
- IC50 (TRb): 5.73 µM
- EC50 (TRa): > 30 µM
- IC50 (TRa): 4.49 µM
- EC50 (AR): > 30 µM
- IC50 (AR): 12 µM
- IC50 ([4]; Homo sapiens, Mesenchymal stem cells): ~50 µM
- EC50 (RXRb): > 30 µM
- IC50 (RXRb): 28 µM
- EC50 (RARb): > 30 µM
- IC50 (RARb): 12.3 µM
- EC50 (VDR): > 30 µM
- IC50 (VDR): > 30 µM
- EC50 (PR): > 30 µM
- IC50 (PR): > 30 µM
- EC50 (MR): > 30 µM
- IC50 (MR): 20 µM
- EC50 (GR): > 30 µM
- IC50 (GR): 18.5 µM
- EC50 (PPARd): > 30 µM
- IC50 (PPARd): 28 µM
- EC50 (ERb): > 30 µM
- IC50 (ERb): 10.8 µM
- EC50 (RXRa): > 30 µM
- IC50 (RXRa): 7.42 µM
- EC50 (AhR): > 30 µM
- EC50 (PPARg): 0.686 µM
- IC50 (PPARg): 0.517 µM
- EC50 (LXRa): > 30 µM
- IC50 (LXRa): 23.2 µM
- IC50 ([5]; Homo sapiens): ~30 µM
- EC50 (RARa): > 30 µM
- EC50 (ERa): > 30 µM
- IC50 (ERa): > 30 µM
- EC50 (CAR2): > 30 µM

Compound: O=C(O)c1ccc(-c2nn(C(=O)c3ccccc3)c3ccccc23)cc1 [MRL-003]
- IL17a mRNA levels [1]: did not reduce
- IC50 (human RORγt LBD; read-out: IC50, inhibition of coactivator binding (cofactor peptide recruitment)): 0.28 ± 0.117 µM

Compound: CN(CCOc1ccc(CC2SC(=O)NC2=O)cc1)c1ccccn1 (stereo not drawn) [Rosiglitazone, rosiglitazone, reference compound]
- induction of CD36 gene expression [3]: 3 fold
- induction of FABP4 gene expression [3]: 2 fold

Compound: O=C(Nc1ccccc1)c1cc([N+](=O)[O-])ccc1Cl [GW9662, reference compound]
- IC50 ([4]; human MSCs under adipogenic conditions, data not shown): 5.4 µM
- IC50 ([5]; human MSCs, data not shown): 1 µM

Compound: CC(C)CCC[C@@H](C)[C@H]1CC[C@H]2[C@@H]3CC=C4C[C@@H](O)CC[C@]4(C)[C@H]3CC[C@]12C [Cholesterol, cholesterol, reference compound]
- effect on interaction of RORγt-LBD with cofactor peptide (human RORγt LBD): weak activator
